In patent US20180117036A1, “ORAL PHARMACEUTICAL COMPOSITION FOR INCREASING HYPOXIA TOLERANCE” (CHANGZHOU HI-TECH DISTRICT MULTIPLE DIMENSION INDU, priority 2013, published 2018):
Structures can show the parent of a compound that is named as a salt.

Test system: hypoxic mice
Experiment: Survival time of mice under normal pressure in hypoxic condition (sealed wide mouth bottle with soda lime)
Assay type: in vivo
Settings: intragastric; for Extended Survival Time: 7 days, vs control group; for Survival Time: once a day for 7 days, n = 10, x ± S
Description: Observation of influence of oral administration of different dosage combination of L-carnitine+trimetazidine to hypoxic mice in normal pressure trimetazidine hydrochloride: 0.15, 0.75, 1.5, 3, 6 and 9 mg/kg, equivalent to human daily dosage of 1, 5, 10, 20, 40 and 60 mg;
L-carnitine: 600 mg/kg, equivalent to human daily dosage of 4 g; 70 male mice are selected, each of a weight of 20±2 g. The mice are divided into […] randomly based on weight, 10 for each group, and are given oral administration at a dosage of 20 ml/kg, while the control group is given isovolumetric normal saline, both once a day for consecutive 7 days. In one hour after the final administration, each group of mice are placed in wide mouth bottles of a volume of 160 ml, into which 5 g of soda lime has been pre-added. One bottle contains one mouse and its cap is sealed with Vaseline. Taking death of mice as index, putting down the survival time of mice and taking a 20% or more extension of survival time as significant effect. Please refer to table 1 for the results.
Comparison of L-carnitine 600 mg/kg+trimetazidine hydrochloride 6 mg/kg and separate intragastric administration on mice in hypoxia under atmospheric pressure 40 male mice are selected, each of a weight of 20±2 g. The mice are divided into 4 groups randomly based on weight, 10 for each group, and are given intragastric administration at a dosage of 20 ml/kg, while the control group is given isovolumetric normal saline, both once a day for consecutive 7 days. In one hour after the final administration, each group of mice are placed in wide mouth bottles of a volume of 160 ml, into which 5 g of soda lime has been pre-added. One bottle contains one mouse and its cap is sealed with Vaseline. Taking death of mice as index and putting down the survival time of mice. Please refer to table 2 for the results.

[1] = trimetazidine hydrochloride 6 mg/kg alone

Structure (SMILES)	Extended Survival Time [1] [%]	Survival Time [1] [min]	Extended Survival Time (L-carnitine 600 mg/kg alone) [%]	Survival Time (L-carnitine 600 mg/kg alone) [min]
COc1ccc(CN2CCNCC2)c(OC)c1OC [trimetazidine hydrochloride]	20.9	26.0 ± 5.2		
C[N+](C)(C)C[C@H](O)CC(=O)[O-] [L-carnitine]			33.0	28.6 ± 4.8
